Test results taken from patent publication EP0470323A2, “New salts of the nicotinic acid with aminobenzylic compounds and their pharmaceutical use” (BROMLEY LIMITED, priority 1990, dated 1992).

Legend:
[1] = system: Central artery of a rabbit's ear; assay: In vitro antispastic action, adrenalin-induced spasm of the perfused isolated artery; conditions: spasm induced by Adrenalin, n=4
Method: An "in vitro" method has been used, according to which the withdrawal of the central artery of a rabbit's ear with the relevant nervous connections and the equipment of an appropriate seat for secluded organs was designed (Fleckenstein A., British Journal of Pharmacology 7, 533, 1952).
On the artery they did install a three-ways tube, connected with a peristaltic pump and with a mercury manometer to record the perfusion pressure. The artery was perfused with a rebs liquid at the speed of 2,5 ml/minute. The contractions were induced by injecting into the vessel 0,1 ml adrenalin at the concentration of 1 mcg/ml. The compound according to the example 1 has been added to the bath at concentrations of 0,5 - 1 - 2 uM, five minutes before the adrenalin (four preparations per concentration). As comparison drugs, chlorhydra ted Buflomedil and Papaverin have been used. The activity of the material under investigation has been appreciated in terms of percentages referring to the concentration induced by the Adrenalin (and expressed with DE₅₀) and the relevant forbidding.

[2] = system: aggregation of the platelets caused by the collagene; assay: Anti-aggregating ex vivo activity against collagen in the rat
Method: Six groups of 15 male rats of 200 - 250 g have been used.
The blood taken from the three rats of each group has been mixed and centrifuged during 6 minutes at 1400 rpm, at room temperature. After having taken the plasma full of platelets (PRP) the thereunder floating material has been centrifuged again (4000 rpm during 10 minutes) in order to have the plasma with few platelets (PPP) separated from the balance. The PRP has been diluted with a part of PPP in order to bring the number of platelets to 350 ± 50 x 10³/mm³. The aggregation has been evaluated in accordance with the method of Minsker D.H. and coll. (J. Pharmacol.Exp.Ther. 210 37 1979) by using an ELVI 840 two-channels aggregometer and an Omniscribe recorder B.500. A quantity of 0,25 ml PRP has been used, transferred into the aggregometer for two minutes at 37°C and stirred at 1000 rpm. The light intensity was arranged in such a way, to obtain 0% transmittance with the PRP and 100% with the PPP. After 2′ incubation, by means of microsyringe the collagene was added to the PRP in a volume quantity of 5 mcl with the final concentration of 4 mcg/ml.
From the aggregation trace of the recorder the following data have been evaluated: • a) latent time of the aggregation (seconds between the introductions of collagene and the starting of the aggregation) • b) transmittance increase percentage (maximum aggregation). The same proceeding was repeated for all animals, always by mixing the blood of three rats belonging to the same group and by obtaining in this manner five aggregation curves per group.

[3] = system: skin temperature of the mouse's paw; assay: Peripheral vessel-dilating activity in the mouse (skin temperature of hind paws); type: in vivo; conditions: listed as buflomedil HCl; for Temperature (°C) of the hind paws (n=10): intravenous, dose 0,030 mM/kg/iv; for Temperature (°C) of the hind paws: oral, dose 0,500 mM/kg/os
Method: The method of Richter W. (Acta Pharm. Toxicol. 21, 91; 1974) was used; it consists in determining, at fixed time intervals after the treatment, the skin temperature of the mouse's paw, by keeping the animals in rooms at a constant temperature of 21°C.
Some groups of ten male mouses each have been used; the weight of each animal was 30 g approximately.
The compound according to the Example 1 has been tested "per os" at three basic levels of the doses (0,125 - 0,25 - 0,5 mM/kg) and by intravenous injection at two dose levels (0,015 and 0,03 mM/kg), in comparison with one sole dose of Papaverin and chlorhydrated Buflomedil (0,5 mM/kg "per os" and 0,03m M/kg intravenous). The observation of the skin temperature at the mouse's paw was made before the treatment, 30, 60 and 120 minutes after the "per os" treatment, […] (A-Hl Ellab) connected with an Ellab electric recorder. Of each animal the temperature of both hind paws has been measured, and the values obtained have been averaged .

red cells in the rat [4] = assay: Red cell deformability / filtration, Schmidt-Schönbein method; type: in vivo; conditions: dose 3 x 0,5 mM/kg/os
From the text: (§1) steresis (Teiltel P.: Nouv. Rev. Franç. Hématol. 7, 195, 1967). Any alteration, almost undoubtely at the level of the red cell's membrane, cause some damaging variations of the red cell's elasticity thus making more difficult the passing through the capillary vessels having more reduced diameter, and therefore increasing the flow resistance in the peripheral vessels systems. In order to determine the effect caused by the compound according to the Example 1, on these features of the red cell, the method described by Schmidt, Schonbein and colleagues (Blut 26, 369, 1973) has been used.
In the circulatory flow, the above mentioned capillary vessels being excluded, the blood cells do normally circulate being attached between each other because of their adhesiveness. In order to study this adhesion force, the above mentioned Teitel method has been used. Male rats of 150 g body weight approximately have been employed, and they have been treated for three consecutive days with 0,5 mM/kg/os of the compound according to the Example 1, or otherwise Buflomedil, or even Pentosiphillin used as comparison substance. After the last treatment the animals, without eating from 18 hours, have been killed in a light ethereal anaesthesy and the blood was collected over an 0,2 molar EDTA (9 and 1 volumes respectively). The red cells filtering possibility, measured with the Teitel method, wherein the quantity of red cells passing, in high haematocritical conditions, through a paper filter with holes of 20-40 µm in a previously determined time, has been ascertained as follows: the blood was centrifuged for ten minutes at 2000 rpm in order to obtain the massing of the red cells, two ml of the blood collected as above were put into an upside down turned cone made with filtering paper, being previously wetted with a physiological solution. The volume passing through the filter in 2 - 4 - 8 and 16 minutes is then measured. […]

red cells in the rat [5] = assay: Red cell adhesivity / filtration, Teitel method; type: in vivo
From the text: as §1
In the circulatory flow, the above mentioned capillary vessels being excluded, the blood cells do normally circulate being attached between each other because of their adhesiveness. In order to study this adhesion force, the above mentioned Teitel method has been used. Male rats of 150 g body weight approximately have been employed, and they have been treated for three consecutive days with 0,5 mM/kg/os of the compound according to the Example 1, or otherwise Buflomedil, or even Pentosiphillin used as comparison substance. After the last treatment the animals, without eating from 18 hours, have been killed in a light ethereal anaesthesy and the blood was collected over an 0,2 molar EDTA (9 and 1 volumes respectively). The red cells filtering possibility, measured with the Teitel method, wherein the quantity of red cells passing, in high haematocritical conditions, through a paper filter with holes of 20-40 µm in a previously determined time, has been ascertained as follows: the blood was centrifuged for ten minutes at 2000 rpm in order to obtain the massing of the red cells, two ml of the blood collected as above were put into an upside down turned cone made with filtering paper, being previously wetted with a physiological solution. The volume passing through the filter in 2 - 4 - 8 and 16 minutes is then measured. The average filtration time T 1/2 is reckoned on semi-logarithmic paper by putting on the abscissae the logarithm of the time, and on the ordinates the percentage of blood filtered. In order to follow the Schmidt Schönbein method, the here after described proceeding has been performed: 0,2 ml of a suspension of red cells at 2% obtained by diluting the blood with the autological plasma, then it was placed into an appropriate device permitting to filter this blood through a filter (millipores) of 5 µm mashes at a filtration pressure of 50 mm water. With a chronometer one determines the time required for the passage of the whole sample through the filter.
At time same time, one measures, in the same conditions, the same parameter for a plasma sample. One calculates then the relative filtration time by dividing the time required to filter the diluted blood sample by the time being necessary to filter the plasma sample. For each group the average and the standard error of the individual data obtained was reckoned. The statistical evaluation was obtained by means of the Dunnett test.

[6] = rat, 1,00 mM/kg os for 4 days, PRP 2 hours after last treatment, collagene 4 mcg/ml, listed as Chlorhydrated Buflo-medil
[7] = rat, 1,00 mM/kg os for 4 days, listed as Chlorhydrated Buflo-medil
[8] = 0 minutes (before the treatment)

COc1cc(OC)c(C(=O)CCCN2CCCC2)c(OC)c1 [Buflomedil, reference compound]
EC50 ([1]; Oryctolagus cuniculus, read-out: DE50 (the source's name)): 0.67 µM
% inhibi-tions of the con-tractions ([1]; concentration 0,5 μ M): 41%
% inhibi-tions of the con-tractions ([1]; concentration 1,0 μ M): 60%
% inhibi-tions of the con-tractions ([1]; concentration 2,0 μ M): 87%
effect relative to that caused by the same dose of the compound according to the example 1 ([2]; rat, 1 mM/kg os, platelet aggregation by collagene): approximately 50%
Latency time (sec.) [2, 6]: 51,9 ± 3,7 sec.
Transmittance percentage (maximum aggregation) [2, 6]: 54,2 ± 4,5%
Latency time, % variation vs controls [2, 7]: +38,4%
Transmittance percentage, % variation vs controls [2, 7]: -31%
Temperature (°C) of the hind paws (n=10) [3, 8]: 24,3 ± 0,32 °C
Temperature (°C) of the hind paws (n=10) ([3]; 30 minutes from the treatment): 26,6 ± 0,20 °C
Temperature (°C) of the hind paws (n=10) ([3]; 60 minutes from the treatment): 26,3 ± 0,24 °C
Temperature (°C) of the hind paws (n=10) ([3]; 120 minutes from the treatment): 26,0 ± 0,18 °C
Temperature (°C) of the hind paws [3, 8]: 24,2 ± 0,30 °C
Temperature (°C) of the hind paws ([3]; 30 minutes from the treatment): 25,8 ± 0,25 °C
Temperature (°C) of the hind paws ([3]; 60 minutes from the treatment): 26,5 ± 0,50 °C
Temperature (°C) of the hind paws ([3]; 120 minutes from the treatment): 26,1 ± 0,42 °C
Schmidt-Schönbein method Δ % vs contr. (red cells in the rat [4]): 24,2%
Teitel method Δ % vs contr. (red cells in the rat [5]; dose 3 x 0,5 mM/kg/os): 20,3%
Teitel method T1/2 min. M ± E.S. (red cells in the rat [5]; dose 3 x 0,5 mM/kg/os (three consecutive days)): 2,90 ± 0,28 min.
